For data set [1], the target named is T1, Human immunodeficiency virus type 1 integrase (Human immunodeficiency virus 1, UniProt Q7ZJM1). Description: Inhibition of HIV1 integrase catalyzed reactions.
A short description of data set [2]: Cytotoxicity against human MT2 cells after 48 hrs. Type of data set: cell-based. The conditions noted are these: read-out: LD50.
Data set [3] relates to Human immunodeficiency virus 1. Description: Antiviral activity against HIV1 LAI in MT2 cells assessed as inhibition of virus-induced cytopathic effect. Type of data set: functional. The note with it: Human immunodeficiency virus 1, LAI, read-out: ED50 (the source's name). For orientation: Damage to the host cells serves as the signal in cytopathic effect assays.
The target in data set [4] is T1, Human immunodeficiency virus type 1 integrase. The experiment in a line: Inhibition of HIV1 integrase by overall integration assay.
Data set [5] has the same target. The experiment in a line: Inhibition of HIV1 integrase in presence of Mn2+.
Data set [6] shares this target. The experiment in a line: Inhibition of HIV1 integrase strand transfer activity.
Data set [7] relates to Human immunodeficiency virus 1. The experiment in a line: Antiviral activity against HIV1 in MT4 cells assessed as inhibition of virus-induced cytopathic effect by MTT assay. It is filed as functional, organism-based. The note with it: Human immunodeficiency virus 1, MT4.
Data set [8] in a line: Cytotoxicity against human MT4 cells by MTT assay. Type of data set: cell-based. Background: Formazan colour is commonly taken as a measure of viable cells.

Each structure is given as a SMILES string. Where only a bound is given, the exact number is not on record here.

T1 sequence (Q7ZJM1 whole entry): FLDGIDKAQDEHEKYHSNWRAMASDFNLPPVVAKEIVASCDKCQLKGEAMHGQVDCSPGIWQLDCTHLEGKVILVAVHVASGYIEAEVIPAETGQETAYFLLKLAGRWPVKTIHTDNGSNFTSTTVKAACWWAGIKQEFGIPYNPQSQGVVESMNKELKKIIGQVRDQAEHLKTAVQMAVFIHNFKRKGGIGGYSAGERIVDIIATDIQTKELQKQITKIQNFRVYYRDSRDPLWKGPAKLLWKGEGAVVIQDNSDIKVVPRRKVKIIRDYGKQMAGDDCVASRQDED

As usually defined, the IC50 is the concentration needed to halve the response being measured. The compound `O=C(/C=C/c1ccc(O)c(O)c1)O[C@@H]1C[C@](O)(C(=O)O)C[C@@H](OC(=O)/C=C/c2ccc(O)c(O)c2)[C@H]1O` came in with an IC50 in data set [1] of 640 nM. For the same compound, the CC50 at 48 h in data set [2] is 300000 nM. The EC50 in data set [3] was 1900 nM.
On to `O=C(O)/C=C/c1ccc(O)c(O)c1` [CAFFEIC ACID], for which the IC50 is 2800 nM in data set [4], 2800 nM in data set [5] and 24000 nM in data set [6].
Take `O=C(O)/C=C/c1ccc(O)c(O)c1/C(=C/c1ccc(O)c(O)c1)C(=O)O`: the IC50 in data set [4] was 560 nM; in data set [6], 730 nM. Also, in data set [7], the EC50 is more than 4500 nM. The same compound gave a CC50 in data set [8] of 4500 nM.
The matching figures for `O=C(O)/C=C/c1ccc(O)c2c1C1C(=O)c3cc(O)c(O)cc3C1O2` (racemic): 150 nM, 300 nM, more than 23300 nM and 23300 nM.
Turning to `O=C(/C=C/c1ccc(O)c(O)c1)O[C@@H](C(=O)O)[C@@H](OC(=O)/C=C/c1ccc(O)c(O)c1)C(=O)O` [CICHORIC ACID], in data set [2], the CC50 at 48 h amounted to 700000 nM.
On to `O=C(O)/C=C/c1ccc(O)c(O)c1CC(=O)O`, for which the results for the half-inhibitory concentration (IC50) in data set [4] and in data set [6] were 1340 nM and 1090 nM, respectively. For the same compound, the EC50 in data set [7] is more than 44000 nM. Also, the CC50 in data set [8] is 44000 nM.

The values above are taken from ChEMBL document CHEMBL1156602, “Synthesis and antiviral properties of some polyphenols related to Salvia genus” (Bioorg Med Chem Lett, 2008).
